# Measurements reported in article PMC13330650 (Matrix biology : journal of the International Society for …, 2025).
# Where a chain is given by its changes, count along the chain named. Entries after “also recorded” stand apart in the source; their conditions may differ. Where two headings read alike, the source gives them in different places.
# Experiments:
# [1] = tested on: O-glycans in LNCaP UGDH WT (OE) and S316D cells; assay: metabolic O-glycan labeling (Ac4GalNaz click chemistry) with 4-MU; format: cell-based, human; conditions: 10 μM 4-MU, 72 hours
# [2] = tested on: UGDH pS316 in LNCaP cells; assay: western blot of UGDH pS316 (anti-p-Akt substrate) in LNCaP whole cell lysates; format: cell-based, human; conditions: for EGF-stimulated p-UGDH band intensity: EGF 20ng/mL, inhibitor 20 μM
# Excerpt: To validate the phosphorylation of UGDH by RSK2, S6K1, and SGK1 in a cellular context, we used a western analysis that capitalized on the general reactivity of an antibody generated against the phosphorylated AGC kinase motif (RxRxxpS/T) for targets of Akt, which is also a member of this kinase family. To validate the assay, we first compared phosphorylation of S316 in the in vitro kinase assay using purified recombinant UGDH. […] We further validated using serum starved LNCaP cells treated with EGF to stimulate activity of RSK2 [26] and S6K1 [27], or DHT to activate SGK1 [28], prior to lysate harvest.
# (§1) Cell treatments were conducted as follows, except where described. To stimulate phosphorylation of UGDH at S316 for Western blot analysis, cells were cultured in replete medium until they reached 70 % confluence. Seventy-two hours prior to harvest, medium was replaced with phenol-red-free media containing 5 % CS-FBS to reduce androgen signaling. Twenty-four hours prior to harvest, medium was replaced with phenol-red-free media containing 10 % CS-FBS plus 10 nM DHT or vehicle control. EGF (20ng/mL) or vehicle control were added to cell media twenty minutes prior to harvest. For assessment of UGDH pS316 in these conditions with kinase inhibition, assays were repeated with kinase inhibitors added alongside EGF, DHT, and controls. Kinase inhibitor treatment concentrations were optimized based on published efficacy ranges and the following were used for all assays: BIX02565 (20 μM), PF4708671 (20 μM), GSK650394 (40 μM). Proliferation assays were performed with 10 μM enzalutamide (enz) added as described below, and 3D assays were performed with 1 μM enz added during seeding as described. For click chemistry quantification of glycans in cells treated with 4-MU, 10 μM was added to cell medium during the addition of the click labeling reagents.
# Media were aspirated from cells, and a portion kept for analysis of HA content. Cells were washed with 2 mL cold 1x PBS, scraped into 1 mL of cold 1xPBS, pelleted by centrifugation, and lysed with 1x RIPA buffer supplemented with 1x protease inhibitor cocktail. For analysis of phosphoprotein expression, 1x phosphatase inhibitor was added to the lysis buffer. Bradford assay was performed to quantify protein content of cell lysates. Blots were imaged and quantified through fluorescence emission using the Odyssey Infrared Imaging System (LI-COR Biosciences, Lincoln, NE, USA). β-tubulin or GAPDH were used to normalize protein expression. Each analysis was plotted for three technical replicates of a representative experiment that was repeated at least three times. Statistical significance was assessed by one-way ANOVA followed by Tukey’s post hoc test for multiple comparisons.
# UGDH S316A = target: T1, UGDH S316A (Homo sapiens, UniProt O60701, S316A); assay: steady state kinetics of purified recombinant UGDH S316A; format: biochemical; conditions: cofactor NAD+ varied
# T1 construct: six-histidine; made in house; host or cells: E. coli BL21(DE3)
# T1 sequence (O60701 1-494 S316A): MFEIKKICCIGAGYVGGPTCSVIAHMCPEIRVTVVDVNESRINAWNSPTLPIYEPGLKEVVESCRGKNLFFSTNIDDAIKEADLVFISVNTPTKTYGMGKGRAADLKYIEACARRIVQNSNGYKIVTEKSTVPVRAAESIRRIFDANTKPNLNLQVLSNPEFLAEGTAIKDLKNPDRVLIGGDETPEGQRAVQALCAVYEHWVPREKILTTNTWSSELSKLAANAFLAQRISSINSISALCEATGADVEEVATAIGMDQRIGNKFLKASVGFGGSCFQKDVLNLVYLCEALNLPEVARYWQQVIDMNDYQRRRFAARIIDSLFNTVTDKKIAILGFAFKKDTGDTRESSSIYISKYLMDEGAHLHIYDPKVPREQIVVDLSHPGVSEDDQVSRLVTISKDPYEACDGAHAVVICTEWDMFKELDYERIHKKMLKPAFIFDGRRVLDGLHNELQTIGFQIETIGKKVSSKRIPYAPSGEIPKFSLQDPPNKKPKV
# Procedure: (§2) Purified S316 mutants were compared to the UGDH WT enzyme using the following approaches as previously described. Enzymatic activity was evaluated by steady state kinetics in the presence and absence of the endogenous inhibitor UDP-Xylose to compare Michaelis constants and IC50 values. Intrinsic stability was assessed by thermal denaturation and quaternary structure was determined by size exclusion chromatography. Binding of UDP-Xylose to recombinant UGDH and mutants was measured by isothermal titration calorimetry using the MicroCal PEAQ-ITC (Malvern Panalytical). […] Binding heats were corrected for the heat of dilution and analyzed using the MicroCal PEAQ-ITC Analysis Software, employing a single-site binding model to determine Kd values.
# UGDH WT = target: T2, UGDH WT (Homo sapiens, UniProt O60701); assay: steady state kinetics of purified recombinant UGDH WT; format: biochemical; conditions: cofactor NAD+ varied
# T2 construct: six-histidine; made in house; host or cells: E. coli BL21(DE3)
# T2 sequence (O60701 1-494): T1 sequence (O60701 1-494 S316A) with A316S
# Procedure: as §2
# UGDH S316D = target: T3, UGDH S316D (Homo sapiens, UniProt O60701, S316D); assay: steady state kinetics of purified recombinant UGDH S316D; format: biochemical; conditions: cofactor NAD+ varied
# T3 construct: six-histidine; made in house; host or cells: E. coli BL21(DE3)
# T3 sequence (O60701 1-494 S316D): T1 sequence (O60701 1-494 S316A) with A316D
# Procedure: as §2
# [3] = tested on: LNCaP cell lines (VC, UGDH WT (OE), UGDH S316D, UGDH S316A); assay: tumoroid (anchorage independent spheroid) growth assay; format: cell-based, human
# [4] = tested on: LNCaP cell lines (VC, UGDH WT (OE), UGDH S316D, UGDH S316A); assay: proliferation assay (resazurin conversion to resorufin); format: cell-based, human; conditions: for cell number / proliferation, single kinase inhibitor: all lines, 3-day, inhibitor 20 μM, replete media
# Procedure: as §1
# For basal growth, 5 × 10^4 cells of each line were cultured in 24-well plates in standard steroid-replete media. Cell proliferation was measured daily for three days in replicate plates incubated for 2 h with media containing 10 % resazurin, after which fluorescence of the reduced product, resorufin, was measured (560Ex/590Em) in a microplate reader. To assess the impacts of kinase inhibition on cell growth, assays were repeated in the presence of inhibitors individually and in combination. For androgen-mediated cell growth with kinase inhibition, cells were cultured in 24-well plates in standard steroid-replete media. After 12 h, media were first removed and replaced with media containing 5 % CS-FBS (androgen-depleted conditions) for 48 h, and then media were removed and replaced with media containing 10 % CS-FBS plus 10 nM DHT and kinase inhibitors for another 48 h. Cell proliferation was measured daily as described above beginning when cells were switched to androgen free conditions. For enz treatments, cells were cultured in 24-well plates in standard steroid-replete media. After 12 h, media were replaced with replete media containing vehicle or 10 μM enz and vehicle or kinase inhibitors. For assays with kinase inhibition, cell proliferation was measured daily as described above beginning when cells were switched to the respective treatment condition. Cell numbers were extrapolated from fluorescence values by comparison to a standard curve for each respective cell line, and cell count at the end of the experiment was normalized to cell count on day zero directly following media replacement. All data were plotted for four technical replicates of experiments that were repeated three times. Statistical significance was assessed by one-way ANOVA followed by Tukey’s post hoc test for multiple comparisons.
compound,measurement,setting,value
"Cc1cc(=O)oc2cc(O)ccc12 [4-MU, 4-methylumbelliferone]",O-glycan levels with 4-MU,[1]; UGDH S316D cell lines,this reversal was not observed
same,O-glycan levels with 4-MU,[1]; UGDH WT (OE) cells,significant reductions in O-linked glycans; also recorded: reversed the enhancement of O-glycan levels
EGF: growth factor used to stimulate activity of RSK2 and S6K1,stimulation of UGDH phosphorylation in whole cell lysates,"[2]; serum starved LNCaP cells, EGF 20ng/mL or 10 nM DHT",Strong stimulation
"C[C@]12CCC(=O)C[C@@H]1CC[C@@H]1[C@@H]2CC[C@]2(C)[C@@H](O)CC[C@@H]12 [DHT, 5α-Androstan-17β-ol-3-one]",stimulation of UGDH phosphorylation in whole cell lysates,[2],Strong stimulation
NC(=O)c1ccc[n+]([C@@H]2O[C@H](COP(=O)([O-])OP(=O)(O)OC[C@H]3O[C@@H](n4cnc5c(N)ncnc54)[C@H](O)[C@@H]3O)[C@@H](O)[C@H]2O)c1 [NAD+],Km,UGDH S316A,380 ± 60 µM
same,NAD+ Vmax,UGDH S316A,490±20 nmol/min/mg of protein
same,NAD+ Vmax,UGDH S316A; listed as NAD^+,490 nmol/min/mg of protein
same,Km,UGDH WT,530 ± 90 µM
same,NAD+ Vmax,UGDH WT,710±40 nmol/min/mg of protein
same,NAD+ Vmax,UGDH WT; listed as NAD^+,710 nmol/min/mg of protein
same,Km,UGDH S316D,330 ± 70 µM
same,NAD+ Vmax,UGDH S316D,230±20 nmol/min/mg of protein
same,NAD+ Vmax,UGDH S316D; listed as NAD^+,230 nmol/min/mg of protein
C[C@@H]1CCNC(=O)c2cc3ccc(C(=O)Nc4nc5ccccc5n4CCCN(C)C)cc3n21 [BIX02565],EGF-stimulated p-UGDH band intensity,[2]; LNCaP cells,significantly reduced
same,spheroid growth diminished,"[3]; UGDH WT (OE) and S316D expressing cells, RSK2 inhibitor BIX02565 20 μM",≈ 80%
same,medium and large spheroid growth,"[3]; VC and UGDH S316A cell lines, RSK2 inhibitor BIX02565 20 μM",almost completely suppressed
same,cell death,"[4]; VC and UGDH S316A cells, BIX02565 20 μM",induced significant cell death
same,"cell number / proliferation, single kinase inhibitor",[4],reduced cell number in all lines
"CNC(=O)c1ccc(N2C(=S)N(c3ccc(C#N)c(C(F)(F)F)c3)C(=O)C2(C)C)cc1F [enz, enzalutamide]",enz suppression of large spheroid growth,"[3]; UGDH WT (OE) and S316D expressing cells, 1 μM enz",sensitive
same,growth in the presence of enz and S6K1 inhibitor,"[4]; UGDH S316D lines, 10 μM enz + PF4708671 20 μM",< 30 % of initial cell count
same,proliferation in the presence of enz alone,"[4]; UGDH WT and S316D cells, 10 μM enz",minimal detectable effect on proliferation; also recorded: continued to proliferate
same,"growth reduction, combined targeting of RSK2 with enz","[4]; UGDH WT and S316D, 10 μM enz + BIX02565 20 μM",≈ 20%
same,"growth, combined targeting of RSK2 with enz","[4]; VC and UGDH S316A lines, 10 μM enz + BIX02565 20 μM",eliminated growth
same,growth suppression by enz alone,"[4]; VC and UGDH S316A-expressing cells, 10 μM enz",≈ 40%
O=C(O)c1ccc(-c2c[nH]c3ncc(-c4ccccc4)cc23)cc1C1CCCC1 [GSK650394],DHT-stimulated p-UGDH band,"[2]; LNCaP cells, 10 nM DHT, GSK650394 40 μM",virtually eliminated
same,cell proliferation after serum and steroid depletion,"[4]; GSK650394 40 μM, depleted 48 h, then serum and 10 nM DHT",significant impacts were observed
same,cell proliferation in replete medium,"[4]; GSK650394 40 μM, replete medium, not shown",did not abrogate cell proliferation
CCc1cncnc1N1CCN(Cc2nc3ccc(C(F)(F)F)cc3[nH]2)CC1 [PF4708671],EGF-stimulated p-UGDH band intensity,[2]; LNCaP cells,significantly reduced
same,"cell number / proliferation, single kinase inhibitor",[4],reduced proliferation in all lines
